# Assay results from US6528274B1, “Method for the production of sialylated oligosaccharides” (priority 1998, dated 2003).
# Tests used:
# [1] = molecular target: viral α2,3-sialyltransferase (Myxoma virus, UniProt Q9YJT3); format: biochemical; conditions: LacNAc-O-gr = 100; for Relative Rate (2.7 mM): acceptor 2.7 mM, relative rate of sialic acid transfer, 37° C., pH 6.1
# Procedure: Acceptor (54 nmol), CMP-NANA (40 nmol), and CMP-^3H-NANA (150,000-180,000 dpm) were added to a mixture of cell lysate (16 μL), water (3 μL) and 1 μL of assay buffer (250 mM MES, 0.5% Triton CF54, pH 7.0) in a 0.5 mL microfuge tube. Reaction mixtures were incubated at 37° C., diluted with water to 200 μL and loaded onto a C18 Sep-Pak reverse-phase cartridge which had been pre-equilibrated with 20 mL of MeOH and 20 mL of water. The cartridge was washed with 50 mL of water and the product eluted with 4 mL of MeOH into a scintillation vial. The radioactivity of the MeOH eluates were quantitated by liquid scintillation in 10 mL of EcoLite (+) scintillation cocktail (ICN, Montreal, Quebec, Canada) in a Beckman liquid scintillation counter (LS1801).
# Acceptor (54 nmol), CMP-NANA (40 nmol), and CMP-^3H-NANA (150,000-180,000 dpm) were added to a mixture of cell lysate (16 μL), water (3 μL) and assay buffer (250 mM MES, 0.5% Triton CF54, pH 6.1) in a 0.5 mL microfuge tube.
# [2] = test system: myxoma viral α2,3-sialyl transferase; assay: Transfer of sialic acid (CMP-3H-NANA) to Lewis a and Lewis x oligosaccharide acceptors by viral cell lysate, pH 7.0; format: biochemical, myxoma virus; conditions: acceptor 54 nmol, 37° C., duplicate experiments
# Procedure: The myxoma viral α2,3-sialyl transferase cell lysate was prepared by a method similar to that set forth in International Patent Application Publication No. WO97/18302^65, which is incorporated herein by reference.
# Ten T180 flasks of confluent layers of European rabbit kidney cell (RK13) cells were infected with Brazilian myxoma virus strain, Lausanne (Lu) (ATCC VR-115) isolated Campinas, Brazil, 1949 and Uriarra (Ur) isolated Australian Capital Territory, 1953 (a derivative of Moses strain (ATCC VR-116)). The cells were kept at 37° C. for 24 hours. Twenty-four hours post infection, the cells were detached by scraping and washed with PBS. Cell lysates were prepared by suspension in 20 mL of extraction buffer (50 mM MES, pH 6.1, 0.5% Triton-X100, 100 mM NaCl, 1.5 mM MgCl2, 0.1 mM PMSF, […] aprotinin) at 4° C., for 45 minutes. The lysate was clarified by centrifugation at 2,000 g at 4° C. for 15 minutes. […]
# Acceptor (54 nmol), CMP-NANA (40 nmol), and CMP-^3H-NANA (150,000-180,000 dpm) were added to a mixture of cell lysate (16 μL), water (3 μL) and 1 μL of assay buffer (250 mM MES, 0.5% Triton CF54, pH 7.0) in a 0.5 mL microfuge tube. […] The radioactivity of the MeOH eluates were quantitated by liquid scintillation in 10 mL of EcoLite (+) scintillation cocktail (ICN, Montreal, Quebec, Canada) in a Beckman liquid scintillation counter (LS1801). […]
SMILES,Relative Vmax [1],Relative Rate (2.7 mM) [1],"dpm (radioactive transfer to acceptor) ([2]; Incubation time 170 min., total CMP-NANA 176174)","dpm (radioactive transfer to acceptor) ([2]; Incubation time 90 min., total CMP-NANA 152644)"
COC(=O)CCCCCCCCO[C@@H]1O[C@H](CO)[C@@H](O[C@@H]2O[C@H](CO)[C@H](O[C@H]3O[C@H](CO)[C@H](O)[C@H](O)[C@H]3O)[C@H](O)[C@H]2O)[C@H](O)[C@H]1O [Galα(1→4)-lactose-O-gr],17,12,–,–
COC(=O)CCCCCCCCO[C@H]1O[C@H](CO)[C@H](O)[C@H](O[C@@H]2O[C@H](CO)[C@H](O)[C@H](O)[C@H]2O)[C@H]1NC(C)=O [T-disaccharide-O-gr],51,64,–,–
CC(=O)N[C@H]1C(O)O[C@H](CO)[C@@H](O[C@@H]2O[C@H](CO)[C@H](O)[C@H](O)[C@H]2O)[C@@H]1O (stereo partly drawn) [LacNAc-OH],–,171,–,–
"COC(=O)CCCCCCCCO[C@@H]1O[C@H](CO)[C@@H](O[C@@H]2O[C@@H](C)[C@@H](O)[C@@H](O)[C@@H]2O)[C@H](O[C@@H]2O[C@H](CO)[C@H](O)[C@H](O)[C@H]2O)[C@H]1NC(C)=O [Le^a-gr, 8-methoxycarbonyloctyl β-D-galactopyranosyl-(1→3) [α-L-fucopyranosyl-(1→4)]-β-D-2-acetamide-2-deoxy-glucopyranoside]",42,50,4161/4045,–
COC(=O)CCCCCCCCO[C@@H]1O[C@H](CO)[C@@H](O[C@@H]2O[C@H](CO)[C@H](O)[C@H](O)[C@H]2O)[C@H](O)[C@H]1O [Lactose-O-gr],112,90,–,–
CCCCCCCCO[C@@H]1O[C@H](CO)[C@@H](O[C@@H]2O[C@H](CO)[C@](C)(O)[C@H](O)[C@H]2O)[C@H](O)[C@H]1O [4′-C-methyl-lactose-octyl],–,20,–,–
OC[C@H]1O[C@H](Oc2ccccc2)[C@H](O)[C@@H](O)[C@H]1O [Gal-O-phenyl],–,<1,–,–
COC(=O)CCCCCCCCO[C@@H]1O[C@H](CO)[C@@H](O[C@@H]2O[C@H](CO)[C@H](O)[C@H](O)[C@H]2O)[C@H](O)[C@H]1NC(C)=O [LacNAc—O-gr],100,100,–,–
COC(=O)CCCCCCCCOC1OC(CO)C(OC2OC(CO)C(O)C(OC3OC(CO)C(O)C(O)C3O)C2O)C(O)C1NC(C)=O (stereo not drawn) [Galα(1→3)-lacNAc-O-gr],–,18,–,–
CCCCCCCCO[C@@H]1O[C@H](CO)[C@@H](O[C@@H]2O[C@H](CO)[C@H](O)[C@](C)(O)[C@H]2O)[C@H](O)[C@H]1O [3′-C-methyl-lactose-octyl],–,4.1,–,–
COC(=O)CCCCCCCCO[C@@H]1O[C@H](CO)[C@@H](O)[C@H](O[C@@H]2O[C@H](CO)[C@H](O)[C@H](O)[C@H]2O)[C@H]1NC(C)=O [Le^c-O-gr],90,79,–,–
CCCCCCCCO[C@@H]1O[C@H](CO)[C@@H](O)[C@H](O)[C@H]1O [Glc-O-octyl],–,<1,–,–
"CCCCCCCCO[C@@H]1O[C@H](CO)[C@@H](O[C@@H]2O[C@H](C(C)(C)O)[C@H](O)[C@H](O)[C@H]2O)[C@H](O)[C@H]1NC(C)=O [6′,6′-C-dimethyl-LacNAc-O-octyl]",–,17,–,–
COC(=O)CCCCCCCCOC1OC(CO)C(O)C(O)C1NC(C)=O (stereo not drawn) [GlcNAc-O-gr],–,<1,–,–
"COC(=O)CCCCCCCCO[C@@H]1O[C@H](CO)[C@@H](O[C@@H]2O[C@H](CO)[C@H](O)[C@H](O)[C@H]2O)[C@H](O[C@@H]2O[C@@H](C)[C@@H](O)[C@@H](O)[C@@H]2O)[C@H]1NC(C)=O [Le^x-gr, 8-methoxycarbonyloctyl α-L-fucopyranosyl-(1→3)-[β-D-galactopyranosyl-(1→4)]-β-D-2-acetamide-2-deoxy-glucopyranoside]",30,21,–,1330/1130
